# Assay results reported in patent US4241056A, “Penicillins and salts thereof” (Boehringer Ingelheim GmbH, priority 1978, dated 1980).
# Tests used:
# [1] = tested on: Staphylococcus aureus SG 511; assay: MIC, serial dilution test in the microtiter system; assay type: cell-based; settings: SG511, 18 h, Staph. Aureus SG 511, 37° C., 18-20 hours
# Method: (§1) The tests were performed according to the method of the serial dilution test in the microtiter system. The effect of the substances on bacteriostasis was examined in a fluid medium. The activity on bacteriostatis was examined at the following concentrations:
# (§2) 10 gm of peptone, 8 gm of meat extract-oxoid, 3 gm of sodium chloride, 2 gm of sec. sodium phosphate were diluted with distilled water to 1000 ml (pH 7.2-7.4). Only in the test against streptococci 1% of glucose was added. The age of the primary cultures was about 20 hours. The standardizations of the pathogen suspension was effected by using a photometer according to "Eppendorf" (test tube diameter 14 mm, filter 546 nm) with the aid of the turbidity of a comparison suspension consisting of barium sulfate, this suspension being prepared by addition of 3.0 ml of 1% barium chloride solution to 97 ml of 1% sulfuric acid. After the standardization, streptococcus aronson were further diluted to a concentration of 1:15 and the other germs to a concentration of 1:1500 by menas of a sodium chloride solution.
# (§3) 16 mg of the test substance were put into a 10 ml measuring flask and filled up to the mark with the solvent. The further dilution series was standardized with distilled water or the respective solvent.
# (§4) The cavities of the microtiter plates were filled with 0.2 ml of nutrient medium. Then, 0.01 ml of the corresponding test substance dilution was added and inoculated with 0.01 ml of the standardized suspension. The bacteria were incubated at 37° C. for 18-20 hours. Control tests merely using the solvent were carried out simultaneously.
# (§5) The measurement was carried out macroscopically to determine the minimal inhibitory (threshold) concentration, i.e. the lowest still bacteriostatically effective concentration.
# (§6) Staphylococcus aureus SG 511, streptococcus aronson, streptococcus faecalis ATCC 10541, escherichia coli ATCC 9637, 11 775 and escherichia coli 12593/74 (β-lactamase carrier), pseudomonas aeruginosa hamburgensis and ATCC 10145, serratia marcescens ATCC 13 880, klebsiella pneumoniae ATCC 10 031 and 272 and proteus mirabilis hamburgensis.
# [2] = tested on: escherichia coli 12593/74 (β-lactamase carrier); assay: MIC, serial dilution test in the microtiter system; assay type: cell-based; settings: 18 h, E. coli 12593/74 (β-lactamase carrier), 37° C., 18-20 hours
# Method: as §1, §2, §3, §4, §5, §6
# [3] = tested on: escherichia coli ATCC 11775; assay: MIC, serial dilution test in the microtiter system; assay type: cell-based; settings: ATCC11775, 18 h, E. coli ATCC 11775, 37° C., 18-20 hours
# Method: as §1, §2, §3, §4, §5, §6
# [4] = tested on: escherichia coli ATCC 9637; assay: MIC, serial dilution test in the microtiter system; assay type: cell-based; settings: ATCC9637, 18 h, E. coli ATCC 9637, 37° C., 18-20 hours
# Method: as §1, §2, §3, §4, §5, §6
# [5] = tested on: klebsiella pneumoniae 272; assay: MIC, serial dilution test in the microtiter system; assay type: cell-based; settings: 18 h, klebs pneum. 272, 37° C., 18-20 hours
# Method: as §1, §2, §3, §4, §5, §6
# [6] = tested on: klebsiella pneumoniae ATCC 10 031; assay: MIC, serial dilution test in the microtiter system; assay type: cell-based; settings: 18 h, klebs pneum ATCC 10031, 37° C., 18-20 hours
# Method: as §1, §2, §3, §4, §5, §6
# [7] = tested on: proteus mirabilis hamburgensis; assay: MIC, serial dilution test in the microtiter system; assay type: cell-based; settings: 18 h, prot. mirabilis, 37° C., 18-20 hours
# Method: as §1, §2, §3, §4, §5, §6
# [8] = tested on: pseudomonas aeruginosa ATCC 10145; assay: MIC, serial dilution test in the microtiter system; assay type: cell-based; settings: ATCC10145, 18 h, pseud. aerug. ATCC 10145, 37° C., 18-20 hours
# Method: as §1, §2, §3, §4, §5, §6
# [9] = tested on: pseudomonas aeruginosa hamburgensis; assay: MIC, serial dilution test in the microtiter system; assay type: cell-based; settings: 18 h, pseud. aerug. hamb., 37° C., 18-20 hours
# Method: as §1, §2, §3, §4, §5, §6
# [10] = tested on: serratia marcescens ATCC 13 880; assay: MIC, serial dilution test in the microtiter system; assay type: cell-based; settings: ATCC13, 18 h, serrat marcesc., 37° C., 18-20 hours
# Method: as §1, §2, §3, §4, §5, §6
# [11] = tested on: streptococcus aronson; assay: MIC, serial dilution test in the microtiter system; assay type: cell-based; settings: 18 h, strept. aronson, 1% glucose added, 37° C., 18-20 hours
# Method: as §1, §2, §3, §4, §5, §6
# [12] = tested on: streptococcus faecalis ATCC 10541; assay: MIC, serial dilution test in the microtiter system; assay type: cell-based; settings: Enterococcus faecalis, ATCC10541, 18 h; strept. faecal.; 37° C., 18-20 hours
# Method: as §1, §2, §3, §4, §5, §6
# [13] = Serum (blood) level in rats; assay type: in vivo; settings: rat, average from 3 rats; for concentration at 1 h: 60 min.; for concentration at 2 h: 120 min.; for concentration at 0.5 h: 30 min.
# Method: For the determination of the serum level in rats, typical representatives of the penicillins according to the invention were administered at a dosage of 10 mg/kg subcutaneously or 100 mg/kg per os to groups of 3 female FW 49 rats (weight 100 to 130 gm) each. Blood tests taken from the heart were worked up, and the obtained sera were tested by the cylinder test-agar diffusion method on plates with sarcina lutea ATCC 15957. The samples were compared with standard curves.
# [14] = tested on: E. coli ATCC 11775; assay: In vivo activity against experimental infection in mice; design: species or system mouse (NMRI); settings: Escherichia coli, ATCC11775, sc, 168 h, subcutaneous, 7 days observation, read-out: ED50 (dose at which 50% of the animals survived)
# Method: A number of compounds of this invention were tested in vivo in mice against experimental infections. Bacteria E. coli ATCC 11775 and pseudomonas aeruginosa walter were used as pathogens. An intraperitoneal infection with 0.2 ml of a 5% mucin suspension of the bacteria was induced. This corresponds to about 2×10^6 germs E. coli and 8×10^5 germs pseudomonas/mouse. Female NMRI mice were divided into groups of 10 animals each, two control groups remained untreated, the remaining groups were treated with different doses of the respective penicillins for the determination of the ED50 (dose at which 50% of the animals survived). The groups with the E. coli infection were treated with the substance 3 times on the first day (1, 4 and 7 hours post-infectionem) and for 2 days thereafter twice a day. The groups with the pseudomonas infection were treated with the substance applied 6 times on the first day (1, 3, 6, 9, 12, and 15 hours post-infectionem) and for 2 days thereafter twice a day. The observation time was in both cases 7 days.
Structure (SMILES),MIC [1] [µg/mL],MIC [2] [µg/mL],MIC [3] [µg/mL],MIC [4] [µg/mL],MIC [5] [µg/mL],MIC [6] [µg/mL],MIC [7] [µg/mL],MIC [8] [µg/mL],MIC [9] [µg/mL],MIC [10] [µg/mL],MIC [11] [µg/mL],MIC [12] [µg/mL],concentration at 1 h ([13]; oral 100 mg/kg) [ng/mL],concentration at 2 h ([13]; oral 100 mg/kg) [ng/mL],"concentration at 1 h ([13]; sc, subcutaneous 10 mg/kg) [ng/mL]","concentration at 2 h ([13]; sc, subcutaneous 10 mg/kg) [ng/mL]",ED50 [14] [mg/kg],concentration at 0.5 h ([13]; oral 100 mg/kg) [ng/mL],"concentration at 0.5 h ([13]; sc, subcutaneous 10 mg/kg) [ng/mL]"
"Cc1ncc(NC(=O)N[C@@H](C(=O)N[C@@H]2C(=O)N3[C@@H]2SC(C)(C)[C@@H]3C(=O)O)c2ccc(O)cc2)c(O)n1 [B, D-α-[3-(4-hydroxy-2-methyl-5-pyrimidyl)-ureido]-p-hydroxybenzyl-penicillin sodium]",1.25,80,1.25,2.5,80,80,0.6,2.5,5,5,0.3,10,18800,1900,7300,1100,5,–,–
"CC(=O)Nc1ncc(NC(=O)N[C@@H](C(=O)N[C@@H]2C(=O)N3[C@@H]2SC(C)(C)[C@@H]3C(=O)O)c2ccc(O)cc2)c(O)n1 [Compound E, D-α-[3-(acetylamino-4-hydroxy-pyrimidyl)-ureido]-p-hydroxybenzyl-penicillin sodium]",1.25,> 80,2.5,5,80,80,1.25,2.5,2.5,10,0.3,10,13900,13700,5800,7700,15,13800,4100
"CC1(C)S[C@@H]2[C@H](NC(=O)[C@H](NC(=O)Nc3cnc(N4CCOCC4)nc3O)c3ccc(O)cc3)C(=O)N2[C@H]1C(=O)O [K, D-α-[3-(4-hydroxy-2-morpholiono-5-pyrimidyl)-ureido]-p-hydroxybenzyl-penicillin sodium]",1.25,> 80,2.5,2.5,80,> 80,1.25,1.25,2.5,5,0.3,10,–,–,–,–,–,–,–
"CC1(C)S[C@@H]2[C@H](NC(=O)[C@H](NC(=O)N3CCN(S(C)(=O)=O)C3=O)c3ccccc3)C(=O)N2[C@H]1C(=O)O [R, reference compound]",–,–,5,10,–,–,–,20,40,–,–,–,–,–,–,–,–,–,–
"CC1(C)S[C@@H]2[C@H](NC(=O)[C@H](NC(=O)Nc3cnccc3O)c3ccccc3)C(=O)N2[C@H]1C(=O)O [S, D-α-[(4-hydroxy-3-pyridyl)-ureido]benzylpenicillin sodium, reference compound]",–,–,2.5,10,–,–,–,20,20,–,–,–,–,–,–,–,–,–,–

# The next lines start with results.
MIC [1] [µg/mL],MIC [2] [µg/mL],MIC [3] [µg/mL],MIC [4] [µg/mL],MIC [5] [µg/mL],MIC [6] [µg/mL],MIC [7] [µg/mL],MIC [8] [µg/mL],MIC [9] [µg/mL],MIC [10] [µg/mL],MIC [11] [µg/mL],MIC [12] [µg/mL],Structure (SMILES),concentration at 1 h ([13]; oral 100 mg/kg) [ng/mL],concentration at 2 h ([13]; oral 100 mg/kg) [ng/mL],"concentration at 1 h ([13]; sc, subcutaneous 10 mg/kg) [ng/mL]","concentration at 2 h ([13]; sc, subcutaneous 10 mg/kg) [ng/mL]",ED50 [14] [mg/kg],concentration at 0.5 h ([13]; oral 100 mg/kg) [ng/mL],"concentration at 0.5 h ([13]; sc, subcutaneous 10 mg/kg) [ng/mL]"
–,10,0.6,1.25,2.5,2.5,0.6,2.5,2.5,0.6,0.02,2.5,"CC1(C)S[C@@H]2[C@H](NC(=O)[C@H](NC(=O)Nc3cnc(Nc4ccc(Cl)c(Cl)c4)nc3O)c3ccc(O)cc3)C(=O)N2[C@H]1C(=O)O [J, D-α-[3-(2-m,p-dichloroanilino-4-hydroxy-5-pyrimidyl)-ureido]-p-hydroxybenzyl-penicillin sodium]",–,–,–,–,–,–,–
0.3,> 80,1.25,0.6,10,20,0.6,2.5,2.5,1.25,0.08,5,"CC1(C)S[C@@H]2[C@H](NC(=O)[C@H](NC(=O)Nc3cnc(NC4CCCCC4)nc3O)c3ccc(O)cc3)C(=O)N2[C@H]1C(=O)O [L, D-α-[3-(2-cyclohexylamino-4-hydroxy-5-pyrimidyl)-ureido]-p-hydroxybenzyl-penicillin sodium]",–,–,–,–,–,–,–
1.25,> 80,2.5,10,> 80,> 80,2.5,5,5,10,0.3,80,CN(C)C(=O)Nc1ncc(NC(=O)N[C@@H](C(=O)N[C@@H]2C(=O)N3[C@@H]2SC(C)(C)[C@@H]3C(=O)O)c2ccc(O)cc2)c(O)n1 [M],–,–,–,–,–,–,–
0.3,> 80,2.5,2.5,40,80,0.3,2.5,2.5,5,0.08,10,"CNc1ncc(NC(=O)N[C@@H](C(=O)N[C@@H]2C(=O)N3[C@@H]2SC(C)(C)[C@@H]3C(=O)O)c2ccc(O)cc2)c(O)n1 [N, D-α-[3-(4-hydroxy-2-methylamino-5-pyrimidyl)-ureido]-p-hydroxybenzyl-penicillin sodium]",–,–,–,–,–,–,–
0.3,80,0.65,0.3,10,20,0.3,5,10,1.25,0.02,10,"CC1(C)S[C@@H]2[C@H](NC(=O)[C@H](NC(=O)Nc3cnc(NCc4ccc(Cl)cc4)nc3O)c3ccc(O)cc3)C(=O)N2[C@H]1C(=O)O [O, D-α-[3-(2-p-chlorobenzylamino-4-hydroxy-5-pyrimidyl)-ureido]-p-hydroxybenzyl-penicillin sodium]",–,–,–,–,–,–,–
0.3,80,1.25,1.25,10,10,0.08,1.25,2.5,1.25,0.08,5,"CCCNc1ncc(NC(=O)N[C@@H](C(=O)N[C@@H]2C(=O)N3[C@@H]2SC(C)(C)[C@@H]3C(=O)O)c2ccc(O)cc2)c(O)n1 [P, D-α-[3-(4-hydroxy-2-propylamino-5-pyrimidyl)-ureido]-p-hydroxybenzyl-penicillin sodium]",–,–,–,–,–,–,–
